Measured values reported in ChEMBL document CHEMBL1152140 (Bioorg Med Chem Lett, 2008).

Key:
[1] = Inhibition of potato LOX5 by enzyme immuno assay; parameters: species or system Solanum tuberosum
Rattus norvegicus = assay: Antiinflammatory activity against carrageenan-induced orally dosed rat assessed paw edema after 3 hrs; type: functional; details: po
[2] = target: T1, Prostaglandin G/H synthase 1 (Ovis aries, UniProt P05979)
T1 sequence (P05979 whole entry): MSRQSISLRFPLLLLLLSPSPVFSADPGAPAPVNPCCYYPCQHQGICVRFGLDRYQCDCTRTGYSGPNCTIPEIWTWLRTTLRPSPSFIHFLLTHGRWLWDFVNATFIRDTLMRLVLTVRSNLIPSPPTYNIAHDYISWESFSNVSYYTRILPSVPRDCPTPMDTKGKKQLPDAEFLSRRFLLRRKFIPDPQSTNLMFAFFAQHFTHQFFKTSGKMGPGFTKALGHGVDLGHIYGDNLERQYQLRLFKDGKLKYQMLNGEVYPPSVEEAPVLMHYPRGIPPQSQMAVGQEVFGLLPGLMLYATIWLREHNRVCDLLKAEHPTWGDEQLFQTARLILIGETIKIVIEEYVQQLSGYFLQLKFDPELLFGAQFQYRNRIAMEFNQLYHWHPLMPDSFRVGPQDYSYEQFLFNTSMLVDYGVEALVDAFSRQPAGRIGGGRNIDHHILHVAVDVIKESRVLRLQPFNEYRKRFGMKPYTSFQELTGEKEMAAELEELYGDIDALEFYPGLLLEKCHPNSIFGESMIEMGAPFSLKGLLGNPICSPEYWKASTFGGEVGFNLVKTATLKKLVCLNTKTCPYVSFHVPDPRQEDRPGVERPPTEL
Description: Inhibition of ovine COX1 by enzyme immuno assay

Compound	IC50 [1]	ED50 (Rattus norvegicus)	IC50 [2]
CS(=O)(=O)c1ccc(-n2nc(C(F)(F)F)cc2-c2ccn(O)c(=O)c2)cc1	0.35 µM	66.9 mg/kg	13.2 µM
NS(=O)(=O)c1ccc(-n2nc(C(F)(F)F)cc2-c2ccn(O)c(=O)c2)cc1	4.9 µM	99.8 mg/kg	10.2 µM
O=C(O)/C=C/c1ccc(O)c(O)c1 [CAFFEIC ACID]	3.47 µM	–	–
Cc1ccc(-c2cc(C(F)(F)F)nn2-c2ccc(S(N)(=O)=O)cc2)cc1 [CELECOXIB]	> 10 µM	–	–
